Experimental data taken from patent publication US20260008862A1, “Bispecific Anti-BCMA x Anti-CD3 Antibodies and Uses Thereof” (Regeneron Pharmaceuticals, Inc., priority 2018, published 2026).
“Also recorded” adds a separate entry of the source.

How the values were obtained:
[1] = system: Jurkat/NFATLuc.3C7 cells + Daudi cells; test: Jurkat/NFATLuc reporter bioassay with Daudi cells; type: cell-based; settings: highest RLU / lowest RLU
Protocol: (§1) Activity of the anti-BCMA×anti-CD3 bispecific antibodies were assessed in a Jurkat/NFATLuc reporter bioassay utilizing several cell lines with varying levels of BCMA surface expression. The Jurkat cells were engineered to express an NFAT-luciferase reporter (Jurkat/NFATLuc.3C7), and 50,000 Jurkat reporter cells were combined with 50,000 BCMA positive (Daudi, MM1-S, NCI-H929, OPM-2, RPMI-8226, MOLP-8, or Raji) or BCMA negative (HEK293) cells in Thermo Nunclon delta 96 well white microwell plates (Thermo Scientific, Cat #136102) in 50 ul of assay media (RPMI media with 10% FBS and 1% P/S/G). Three-fold serial dilutions of the BCMA×CD3 bispecific antibodies (mAb25441 D or mAb25442D), or a bivalent anti-BCMA antibody (mAb21581) were immediately added in 50 μL of assay buffer. The plates were gently agitated and incubated in a 37° C., 5% CO2 incubator for 4-6 hours. NFAT-Luciferase activity was determined using Promega One-Glo (Cat #E6130) and a Perkin Elmer Envision plate reader. RLU were plotted in GraphPad Prism using a four-parameter logistic equation over a 12-point response curve to calculate EC50 values. […] The signal to noise (S:N) is determined by taking the ratio of the highest RLU on the curve to the lowest.

[2] = biological target: T1, cynomolgus CD3 (mfCD3 engineered Jurkat cell line) (Macaca fascicularis, UniProt Q95LI5+Q95LI8); test: FACS binding to mfCD3 engineered Jurkat cells; settings: median EC50, FACS binding
T1 construct: expressed in transfected cells; host or cells: Jurkat cells, CRISPR/Cas9-engineered (mfCD3 engineered Jurkat cell line)
T1 sequence (Q95LI5 22-198, change not shown): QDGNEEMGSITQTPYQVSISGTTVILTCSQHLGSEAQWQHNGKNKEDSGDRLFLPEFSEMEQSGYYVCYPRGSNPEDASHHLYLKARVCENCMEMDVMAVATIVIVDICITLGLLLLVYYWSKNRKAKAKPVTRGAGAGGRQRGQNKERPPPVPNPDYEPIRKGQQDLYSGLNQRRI
T1 sequence (Q95LI8 22-171, change not shown): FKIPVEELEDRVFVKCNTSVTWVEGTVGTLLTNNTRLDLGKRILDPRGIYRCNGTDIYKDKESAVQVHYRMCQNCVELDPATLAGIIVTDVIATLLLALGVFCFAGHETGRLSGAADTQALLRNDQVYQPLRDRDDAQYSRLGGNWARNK
T1 sequence (P09693 23-182 partner): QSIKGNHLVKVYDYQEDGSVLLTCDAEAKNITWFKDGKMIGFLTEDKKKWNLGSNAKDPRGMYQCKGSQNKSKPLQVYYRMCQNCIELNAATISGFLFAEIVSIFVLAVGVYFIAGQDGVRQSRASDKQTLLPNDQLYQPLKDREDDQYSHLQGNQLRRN
T1 sequence (P20963 22-164 partner): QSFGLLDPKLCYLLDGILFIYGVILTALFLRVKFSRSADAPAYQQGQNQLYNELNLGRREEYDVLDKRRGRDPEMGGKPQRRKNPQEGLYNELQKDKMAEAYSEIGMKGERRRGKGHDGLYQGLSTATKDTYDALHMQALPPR
Protocol: Flow cytometric analysis was utilized to determine binding of BCMA×CD3 bispecific antibodies to human and cynomolgus CD3 (Jurkat cells, mfCD3 engineered Jurkat cells, primary human CD8+ and cynomolgus CD8+ T cells). Briefly, 1e05 cells/well were incubated in the presence of FACS wash with block (PBS+1% filtered FBS+5% mouse serum) with a serial dilution of BCMA×CD3 and control antibodies for 30 minutes on ice. After incubation, the cells were washed twice with cold FACS wash (PBS+1% filtered FBS) and bound antibody was detected by incubating with Alexa647-conjugated anti-human secondary antibody on ice for an additional 30 minutes. Wells containing no antibody or secondary only were used as a control. For the detection of monkey and human T cells, a cocktail of human and cynomolgus cross-reactive antibodies to CD4, CD8 and CD16 was added to the anti-human secondary. After incubation, cells were washed, re-suspended in 200 μL cold PBS containing 1% filtered FBS and analyzed by flow cytometry on a BD FACS Canto II. Cells were gated by FSC-H by FSC-A to select singlet events, followed by side and forward scatters to select for live events. For monkey T cells, additional gating on CD8+/CD16− cells was performed.
EC50 values for FACS binding were calculated using 4-parameter non-linear regression analysis in Prism software. […]

[3] = system: Jurkat/NFATLuc.3C7 cells + HEK293 (BCMA negative) cells; test: Jurkat/NFATLuc reporter bioassay with HEK293 cells; type: cell-based; settings: highest RLU / lowest RLU
Protocol: as §1

[4] = system: Jurkat/NFATLuc.3C7 cells + Raji cells; test: Jurkat/NFATLuc reporter bioassay with Raji cells; type: cell-based; settings: highest RLU / lowest RLU
Protocol: as §1

[5] = system: BCMA-expressing MOLP-8 tumors; test: MOLP-8 + PBMC subcutaneous xenogenic tumor model, dose response (Example 13); type: in vivo, mouse
Protocol: To determine the in vivo efficacy of anti-BCMA×anti-CD3 bispecific antibodies (Abs), a xenogenic tumor study was performed. Immunodeficient NOD.Cg-Prkdc^scidIl2rg^tm1Wji/SzJ (NSG) mice were subcutaneously implanted with a mixture of 5×10^6 BCMA-expressing MOLP-8 human multiple myeloma tumor cells and 1×10^6 human peripheral blood mononuclear cells (PBMC) isolated from a normal, healthy donor. […] The mice were administered these Abs twice per week for a total of seven doses, and tumor growth was assessed over 56 days. While the BCMA^+ MOLP-8 tumors grew similarly in the vehicle- and CD3-binding control-treated mice, both BCMA×CD3 Abs that were tested prevented the growth of tumors in a dose-dependent manner in vivo.
Implantation and measurement of xenogenic tumors: NSG mice were subcutaneously implanted with a mixture of 5×10^6 BCMA-expressing MOLP-8 multiple myeloma cells and 1×10^6 PBMC derived from a normal, healthy donor. […] The mice were administered Abs twice per week for a total of seven doses. Tumor growth was measured by caliper twice per week for the duration of the experiment.
Calculation of xenogenic tumor growth and inhibition: In order to determine tumor volume by external caliper, the greatest longitudinal diameter (length in mm) and the greatest transverse diameter (width in mm) were determined. Tumor volumes based on caliper measurements were calculated by the formula: Volume (mm^3)=(length×width^2)/2.

[6] = system: Jurkat/NFATLuc.3C7 cells + MM1-S cells; test: Jurkat/NFATLuc reporter bioassay with MM1-S cells; type: cell-based; settings: highest RLU / lowest RLU
Protocol: as §1

Substance	S:N [1]	S:N [3]	S:N [4]	Average Tumor Size (mm3) ± SEM on Day 3 ([5]; 0.04 mg/kg)	Average Tumor Size (mm3) ± SEM on Day 7 ([5]; 0.04 mg/kg)	Average Tumor Size (mm3) ± SEM on Day 10 ([5]; 0.04 mg/kg)	Average Tumor Size (mm3) ± SEM on Day 14 ([5]; 0.04 mg/kg)	Average Tumor Size (mm3) ± SEM on Day 17 ([5]; 0.04 mg/kg)	Average Tumor Size (mm3) ± SEM on Day 21 ([5]; 0.04 mg/kg)	Average Tumor Size (mm3) ± SEM on Day 23 ([5]; 0.04 mg/kg)	Average Tumor Size (mm3) ± SEM on Day 28 ([5]; 0.04 mg/kg)	Average Tumor Size (mm3) ± SEM on Day 31 ([5]; 0.04 mg/kg)	Average Tumor Size (mm3) ± SEM on Day 35 ([5]; 0.04 mg/kg)	Average Tumor Size (mm3) ± SEM on Day 3 ([5]; 0.4 mg/kg)	Average Tumor Size (mm3) ± SEM on Day 10 ([5]; 0.4 mg/kg)	Average Tumor Size (mm3) ± SEM on Day 14 ([5]; 0.4 mg/kg)	Average Tumor Size (mm3) ± SEM on Day 17 ([5]; 0.4 mg/kg)	Average Tumor Size (mm3) ± SEM on Day 21 ([5]; 0.4 mg/kg)	Average Tumor Size (mm3) ± SEM on Day 23 ([5]; 0.4 mg/kg)	Average Tumor Size (mm3) ± SEM on Day 28 ([5]; 0.4 mg/kg)	other results
REGN5459: anti-BCMA×anti-CD3 bispecific antibody: BCMA HCVR of mAb21581 (SEQ 66), CD3 HCVR of mAb7221G20 (SEQ 98), common LCVR SEQ 82	25	1	78	11.7 ± 2.1 mm3	37.0 ± 5.7 mm3	104 ± 23.0 mm3	356.7 ± 84.6 mm3	645.6 ± 140.9 mm3	1442.4 ± 310.7 mm3	2124.4 ± 444.1 mm3	1939.3 ± 840.6 mm3	2688.7 ± 1176.6 mm3	612.1 ± 0 mm3	14.0 ± 1.6 mm3	0 ± 0 mm3	0 ± 0 mm3	0 ± 0 mm3	0 ± 0 mm3	0 ± 0 mm3	0 ± 0 mm3	Jurkat-mfCD3 EC50 [M] [2]: did not bind; also recorded: No Binding; Average Tumor Size (mm3) ± SEM on Day 7 ([5]; 0.4 mg/kg): 0 ± 0 mm3; Average Tumor Size (mm3) ± SEM on Day 31 ([5]; 0.4 mg/kg): 0 ± 0 mm3; Average Tumor Size (mm3) ± SEM on Day 35 ([5]; 0.4 mg/kg): 0 ± 0 mm3; Average Tumor Size (mm3) ± SEM on Day 42 ([5]; 0.4 mg/kg): 0 ± 0 mm3; Average Tumor Size (mm3) ± SEM on Day 56 ([5]; 0.4 mg/kg): 0 ± 0 mm3; Average Tumor Size (mm3) ± SEM on Day 3 ([5]; 4 mg/kg): 12.9 ± 1.3 mm3; Average Tumor Size (mm3) ± SEM on Day 7 ([5]; 4 mg/kg): 0.6 ± 0.6 mm3; Average Tumor Size (mm3) ± SEM on Day 10 ([5]; 4 mg/kg): 0 ± 0 mm3; Average Tumor Size (mm3) ± SEM on Day 14 ([5]; 4 mg/kg): 0 ± 0 mm3; Average Tumor Size (mm3) ± SEM on Day 17 ([5]; 4 mg/kg): 0 ± 0 mm3; Average Tumor Size (mm3) ± SEM on Day 21 ([5]; 4 mg/kg): 0 ± 0 mm3; Average Tumor Size (mm3) ± SEM on Day 23 ([5]; 4 mg/kg): 0 ± 0 mm3; Average Tumor Size (mm3) ± SEM on Day 28 ([5]; 4 mg/kg): 1.9 ± 1.9 mm3; Average Tumor Size (mm3) ± SEM on Day 31 ([5]; 4 mg/kg): 3.8 ± 3.0 mm3; Average Tumor Size (mm3) ± SEM on Day 35 ([5]; 4 mg/kg): 9.3 ± 7.5 mm3; Average Tumor Size (mm3) ± SEM on Day 42 ([5]; 4 mg/kg): 12.8 ± 12.8 mm3; Average Tumor Size (mm3) ± SEM on Day 56 ([5]; 4 mg/kg): 17.2 ± 17.2 mm3; S:N [6]: 120
REGN5458: anti-BCMA×anti-CD3 bispecific antibody: BCMA HCVR of mAb21581 (SEQ 66), CD3 HCVR of mAb7221G (SEQ 90), common LCVR SEQ 82	43	1	123	9.3 ± 2.4 mm3	18.3 ± 5.0 mm3	73.9 ± 25.7 mm3	255.4 ± 79.7 mm3	494.3 ± 144.3 mm3	1373.0 ± 366.6 mm3	1882.3 ± 551.5 mm3	2542.5 ± 613.3 mm3	2906.1 ± 532.6 mm3	3538.0 ± 0.0 mm3	13.5 ± 1.5 mm3	0 ± 0 mm3	0 ± 0 mm3	1.7 ± 1.7 mm3	5.3 ± 5.3 mm3	9.7 ± 9.7 mm3	47.4 ± 47.4 mm3	EC50 [2]: 15.1 nM; Average Tumor Size (mm3) ± SEM on Day 31 ([5]; 0.4 mg/kg): 104.7 ± 92.6 mm3; Average Tumor Size (mm3) ± SEM on Day 35 ([5]; 0.4 mg/kg): 375.1 ± 307.5 mm3; Average Tumor Size (mm3) ± SEM on Day 42 ([5]; 0.4 mg/kg): 968.8 ± 689.2 mm3; Average Tumor Size (mm3) ± SEM on Day 56 ([5]; 0.4 mg/kg): 1742.4 ± 635.2 mm3; Average Tumor Size (mm3) ± SEM on Day 3 ([5]; 4 mg/kg): 12.5 ± 1.3 mm3; Average Tumor Size (mm3) ± SEM on Day 7 ([5]; 4 mg/kg): 0 ± 0 mm3; Average Tumor Size (mm3) ± SEM on Day 10 ([5]; 4 mg/kg): 0 ± 0 mm3; Average Tumor Size (mm3) ± SEM on Day 14 ([5]; 4 mg/kg): 0 ± 0 mm3; Average Tumor Size (mm3) ± SEM on Day 17 ([5]; 4 mg/kg): 14.5 ± 7.3 mm3; Average Tumor Size (mm3) ± SEM on Day 21 ([5]; 4 mg/kg): 102.7 ± 66.2 mm3; Average Tumor Size (mm3) ± SEM on Day 23 ([5]; 4 mg/kg): 193.3 ± 117.7 mm3; Average Tumor Size (mm3) ± SEM on Day 28 ([5]; 4 mg/kg): 627.4 ± 318.1 mm3; Average Tumor Size (mm3) ± SEM on Day 31 ([5]; 4 mg/kg): 1018.5 ± 498.3 mm3; Average Tumor Size (mm3) ± SEM on Day 35 ([5]; 4 mg/kg): 1342.9 ± 629.6 mm3; Average Tumor Size (mm3) ± SEM on Day 42 ([5]; 4 mg/kg): 2363.0 ± 890.2 mm3; Average Tumor Size (mm3) ± SEM on Day 49 ([5]; 4 mg/kg, Day 49): 1683.5 ± 1683.5 mm3; Average Tumor Size (mm3) ± SEM on Day 56 ([5]; 4 mg/kg): 3108.1 ± 3108.1 mm3; S:N [6]: 165
